Assay results published in patent publication US20260347403A1, “FUNGICIDAL COMPOUND” (priority 2022, published 2026).
Read-outs that look alike come from different tables or passages of the source. Numbered stars: 1 amine (or outer) side, 2 acyl side, 3 side chain; on linkers, the order of the positions; unused ones are H or OH. Bridge positions count the residues as written; N and C are the ends. Square brackets hold non-standard residues; d marks the D form. Peptide text beside a SMILES is read from it. * marks the point of attachment. Tridecanoyl(12-Me) = CC(C)CCCCCCCCCCC(=O)*; X1 = NC(=O)CC(O)C(N[*:1])C(=O)[*:2]; NMeF = CN[CH](Cc1ccccc1)C(=O)O; NMeN = CN[CH](CC(N)=O)C(=O)O; X2 = CCC(C)CCCCCCCCCCC(=O)*

Tests used:
Zymoseptoria tritici [1] = experiment: Leaf painting assay in wheat seedling, Zymoseptoria tritici; format: in vivo, Zymoseptoria tritici on wheat (variety Riband); conditions: for % reduction of fungal growth: middle segment; for control on the treated area (middle segment): up to, Table 6, Zymoseptoria tritici
Protocol: (§1) Wheat seedlings of the variety Riband (for Zymoseptoria tritici trials) or variety Arina (for Puccinia recondite trials) were grown in a glasshouse until 14 d after seeding. At this time, such seedlings usually have a first leaf fully emerged (designated L1), a second leaf fully emerged (L2) and a third leaf (L3) that was partially emerged and in the process of development. Using a permanent pen, two dots were applied on the second leaf such as to generate three segments of roughly equal size: Segment A (at the base), segment B (middle part) and segment C (upper part of the leaf). A stock solution of the test compound was produced in DMSO at a concentration of 10′000 ppm. […] The diluted compound was applied to the middle segment of L2 using a conventional cotton stick; the cotton stick was soaked in the diluted compound and rubbed several times on the adaxial leaf surface between the two marks. 1 day later, the complete plant was inoculated with a fungal spore suspension using a paint brush and application of the spore suspension until before run-off.
For infection with Zymoseptoria tritici: The test plants were inoculated by spraying a spore suspension on them 1 day after application (1.5Mio spores per ml in water supplemented with 0.01% Tween®20). After an incubation period of 4 days at 22 °C/21 °C. (day/night) and 95% rh, the inoculated test plants were kept at 22 °C/21 °C (day/night) and 70% rh in a greenhouse. Efficacy was assessed by visual evaluation directly when an appropriate level of disease appears on untreated check plants (usually >80% disease cover at 16-19 days after inoculation).
(§2) The three segments of the leaf were evaluated individually.

Glomerella lagenarium = experiment: Liquid culture, Glomerella lagenarium (Colletotrichum lagenarium), Anthracnose, 3-4 days; format: cell-based; conditions: Colletotrichum orbiculare, read-out: % reduction fungal growth
Protocol: (§3) Mycelia fragments or conidia suspensions of a fungus, prepared either freshly from liquid cultures of the fungus or from cryogenic storage, were directly mixed into nutrient broth.
(§4) A stock solution for compound of Formula I(a) and Formula I(b) was produced in DMSO (max. 10 mg/ml), which was diluted with water plus 0.025% Tween®20 to produce a 10× concentrated sample and 10 μl of this solution was pipetted into a microtiter plate (96-well format). The nutrient broth containing the fungal spores/mycelia fragments was then added to give an end concentration of the tested compound. The test plates were incubated in the dark at 24 °C and 96% rh. The inhibition of fungal growth was determined photometrically after 2-7 days, depending on the pathosystem, and percent antifungal activity relative to the untreated check was calculated.
The effect of the test compound (Formula I(a), I(b) and Lipopeptin A) was tested against the following fungi under the conditions as outlined above and specifically herein below:
Glomerella lagenarium (Colletotrichum lagenarium)/Liquid Culture (Anthracnose)
Conidia of the fungus from cryogenic storage were directly mixed into nutrient broth (PDB potato dextrose broth). The inhibition of growth was measured photometrically 3-4 days after application.

[2] = tested on: Puccinia recondita f. sp. tritici; experiment: Leaf painting assay in wheat seedling, Puccinia recondita; format: in vivo, Puccinia recondita f. sp. tritici on wheat (variety Arina); conditions: for % reduction of fungal growth: middle segment; for control on the treated area (middle segment): up to, Table 6, Puccinia
Protocol: as §1
For infection with Puccinia recondita: The test plants were inoculated by spraying them with a spore suspension 1 day after application (spore suspension at 80′000 spores per ml in water supplemented with Tween® 20 at 0.1%). After an incubation period of 1 day at 20 °C and 95% rh, the inoculated test plants were kept at 20 °C and 60% rh in a greenhouse.
as §2

[3] = tested on: several phytopathogenic fungi; experiment: Liquid culture assays, summary over the fungi tested; format: cell-based; conditions: up to; Tables 2 and 3
Protocol: as §3, §4
The effect of the test compound (Formula I(a), I(b) and Lipopeptin A) was tested against the following fungi under the conditions as outlined above and specifically herein below: […]

Fusarium culmorum = experiment: Liquid culture 96-well mixture assay with malonomicin, Fusarium culmorum, 72 hrs; format: cell-based; conditions: read-out: control of fungal growth (% reduction)
Protocol: (§5) A stock solution for compound of Formula I(a) was produced in DMSO (max. 10 mg/ml). Malonomicin was produced according to Law et al, 2018 (Nature Catalys is |VOL 1|DECEMBER 2018|977-984). A stock solution of malonomicin was produced in water plus 0.025% Tween® 20.
(§6) Assays to test efficacy of mixtures of the lipopeptide compound of Formula I(a) in combination with malonomicin on the control of fungal pathogens in a liquid culture assay were designed for a 96well plate as outlined in table 1:
(§7) The 96 well plate design allows to compare disease control of the mixture with disease control of the respective single compound at the same rate.
(§8) A master plate with 10× concentrated solution of the compound stock solutions diluted in water plus 0.025% Tween® 20 was prepared. The concentration of DMSO (from the stock of compound of Formula (a)) and Tween® 20 was kept constant in all cells of the master plate. 10 μl was transferred from the master plate to a 96well test plate. The nutrient broth containing the fungal spores/mycelia fragments was then added to the test plate to give an end concentration of 1× for the tested compounds (as outlined in Table 8). The test plates were incubated in the dark at 24 °C and 96% rh. The inhibition of fungal growth was determined photometrically after ca 3 days, and percent fungal growth reduction relative to the untreated check was calculated.
Fusarium culmorum (EPPO Code: FUSACU)
(§9) Conidia of the fungus from cryogenic storage were directly mixed into nutrient broth (PDB: potato dextrose broth).

Zymoseptoria tritici [4] = experiment: Liquid culture 96-well mixture assay with malonomicin, Zymoseptoria tritici, 72 hrs; format: cell-based; conditions: read-out: control of fungal growth (% reduction)
Protocol: as §5, §6, §7, §8
Zymoseptoria tritici (EPPO Code: SEPTTR)
as §9

| Structure (SMILES) | % reduction of fungal growth (Zymoseptoria tritici [1]; 20 ppm) | % reduction of fungal growth (Zymoseptoria tritici [1]; 200 ppm) | control on the treated area (middle segment) (Zymoseptoria tritici [1]) | inhibition of growth at 0.41 ppm (Glomerella lagenarium; Table 2) | inhibition of growth at 1.2 ppm (Glomerella lagenarium; Table 2) | inhibition of growth at 3.7 ppm (Glomerella lagenarium; Table 2) | inhibition of growth at 11 ppm (Glomerella lagenarium; Table 2) | inhibition of growth at 33 ppm (Glomerella lagenarium; Table 2) | inhibition of growth at 100 ppm (Glomerella lagenarium; Table 2) | inhibition of growth at 0.41 ppm (Glomerella lagenarium; Table 3) | inhibition of growth at 1.2 ppm (Glomerella lagenarium; Table 3) | inhibition of growth at 3.7 ppm (Glomerella lagenarium; Table 3) | inhibition of growth at 11 ppm (Glomerella lagenarium; Table 3) | inhibition of growth at 33 ppm (Glomerella lagenarium; Table 3) | inhibition of growth at 100 ppm (Glomerella lagenarium; Table 3) | % reduction of fungal growth ([2]; 20 ppm) | % reduction of fungal growth ([2]; 200 ppm) | control on the treated area (middle segment) [2] | control of phytopathogenic fungi [3] | also measured |
| --- | --- | --- | --- | --- | --- | --- | --- | --- | --- | --- | --- | --- | --- | --- | --- | --- | --- | --- | --- | --- |
| CCC(C)CCCCCCCCCCC(=O)NC1C(=O)NC(CC(=O)O)C(=O)NC(C(O)CC(N)=O)C(=O)NC(CO)C(=O)N(C)C(CC(N)=O)C(=O)N(C)C(Cc2ccccc2)C(=O)NC(CCC(N)=O)C(=O)NC(CCC(=O)O)C(=O)OC1C (stereo not drawn) [Formula I(b)] (X2-TD[X1]S[NMeN][NMeF]QE; ester 1-C; configuration not given here) | 0% | 31% | up to 70% | 0% | 0% | 0% | 0% | 0% | 0% | 0% | 0% | 0% | 0% | 0% | 0% | 55% | 67% | up to 70% | up to 100% | – |
| NC[C@@H]1NC(=O)C(C(=O)CC(NC(=O)[C@@H](N)CO)(C(=O)O)C(=O)O)=C1O [malonomicin, {[(2S)-2-amino-3-hydroxypropanoyl]amino}{2-[(5S)-5-(aminomethyl)-4-hydroxy-2-oxo-2,5-dihydro-1H-pyrrol-3-yl]-2-oxoethyl}malonic acid] | – | – | – | – | – | – | – | – | – | – | – | – | – | – | – | – | – | – | – | inhibition of growth at 1 ppm (Fusarium culmorum; malonomicin 1.00 ppm): 0%; inhibition of growth at 3 ppm (Fusarium culmorum; malonomicin 3.00 ppm): 0%; inhibition of growth at 7.81 ppm (Fusarium culmorum; malonomicin 7.81 ppm): 0%; inhibition of growth at 15.63 ppm (Fusarium culmorum; malonomicin 15.63 ppm): 0%; inhibition of growth at 31.25 ppm (Fusarium culmorum; malonomicin 31.25 ppm): 0%; inhibition of growth at 62.5 ppm (Fusarium culmorum; malonomicin 62.5 ppm): 0%; inhibition of growth at 125 ppm (Fusarium culmorum; malonomicin 125 ppm): 20%; inhibition of growth at 250 ppm (Fusarium culmorum; malonomicin 250 ppm): 20%; inhibition of growth at 500 ppm (Fusarium culmorum; malonomicin 500 ppm): 20%; inhibition of growth at 1000 ppm (Fusarium culmorum; malonomicin 1000 ppm): 20%; inhibition of growth at 1 ppm (Zymoseptoria tritici [4]; malonomicin 1.00 ppm): 0%; inhibition of growth at 3 ppm (Zymoseptoria tritici [4]; malonomicin 3.00 ppm): 0%; inhibition of growth at 7.81 ppm (Zymoseptoria tritici [4]; malonomicin 7.81 ppm): 0%; inhibition of growth at 15.63 ppm (Zymoseptoria tritici [4]; malonomicin 15.63 ppm): 20%; inhibition of growth at 31.25 ppm (Zymoseptoria tritici [4]; malonomicin 31.25 ppm): 20%; inhibition of growth at 62.5 ppm (Zymoseptoria tritici [4]; malonomicin 62.5 ppm): 50%; inhibition of growth at 125 ppm (Zymoseptoria tritici [4]; malonomicin 125 ppm): 70%; inhibition of growth at 250 ppm (Zymoseptoria tritici [4]; malonomicin 250 ppm): 70%; inhibition of growth at 500 ppm (Zymoseptoria tritici [4]; malonomicin 500 ppm): 90%; inhibition of growth at 1000 ppm (Zymoseptoria tritici [4]; malonomicin 1000 ppm): 100% |
| CC(C)CCCCCCCCCCC(=O)NC1C(=O)NC(CC(=O)O)C(=O)NC(C(O)CC(N)=O)C(=O)NC(CO)C(=O)N(C)C(CC(N)=O)C(=O)N(C)C(Cc2ccccc2)C(=O)NC(CCC(N)=O)C(=O)NC(CCC(=O)O)C(=O)OC1C (stereo not drawn) [Formula I(a)] ({Tridecanoyl(12-Me)}-TD[X1]S[NMeN][NMeF]QE; ester 1-C; configuration not given here) | 0% | 46% | up to 70% | 0% | 0% | 0% | 50% | 90% | 100% | 0% | 0% | 0% | 0% | 0% | 50% | 70% | 61% | up to 70% | up to 100% | inhibition of growth at 1.56 µg/mL (Fusarium culmorum; I(a) 1.56 ppm): 0%; inhibition of growth at 3.125 µg/mL (Fusarium culmorum; I(a) 3.125 ppm): 0%; inhibition of growth at 6.25 µg/mL (Fusarium culmorum; I(a) 6.25 ppm): 0%; inhibition of growth at 12.5 µg/mL (Fusarium culmorum; I(a) 12.5 ppm): 0%; inhibition of growth at 25 µg/mL (Fusarium culmorum; I(a) 25 ppm): 0%; inhibition of growth at 50 µg/mL (Fusarium culmorum; I(a) 50 ppm): 0%; inhibition of growth at 100 µg/mL (Fusarium culmorum; I(a) 100 ppm): 0%; inhibition of growth at 1.56 µg/mL (Zymoseptoria tritici [4]; I(a) 1.56 ppm): 0%; inhibition of growth at 3.125 µg/mL (Zymoseptoria tritici [4]; I(a) 3.125 ppm): 20%; inhibition of growth at 6.25 µg/mL (Zymoseptoria tritici [4]; I(a) 6.25 ppm): 50%; inhibition of growth at 12.5 µg/mL (Zymoseptoria tritici [4]; I(a) 12.5 ppm): 70%; inhibition of growth at 25 µg/mL (Zymoseptoria tritici [4]; I(a) 25 ppm): 70%; inhibition of growth at 50 µg/mL (Zymoseptoria tritici [4]; I(a) 50 ppm): 90%; inhibition of growth at 100 µg/mL (Zymoseptoria tritici [4]; I(a) 100 ppm): 90% |
